Test results as given in patent publication US20100285959A1, “HERBICIDAL MIXTURES” (priority 2006, published 2010).

Columns and labels:
[1] = system: smallflower umbrella sedge (CYPDI); experiment: Test 32 greenhouse, simulated flooded rice culture; format: in vivo, Cyperus difformis; conditions: postemergence to flood, 21 DAA
Method: A greenhouse trial was conducted to evaluate the effects of Compound 1 and isoxadifen-ethyl at different ratios in simulated flooded rice culture. Plastic pots (11-cm diameter) were partially filled with non-sterilized Tama silt loam soil containing a 15:57:28 ratio of sand, silt and clay and 2.9% organic matter. Seeds of Heteranthera limosa (ducksalad; HETLI), Cyperus difformis (smallflower umbrella sedge; CYPDI), one stand of Echinochloa crus-galli (barnyardgrass; ECHCG), and one stand of four rice seedlings (Oryza sativa cv. ‘M202’; ORYSA) were planted into a single 11-cm diameter pot for each rate and mixture of rates. To obtain this planting, C. difformis and H. limosa seeds were planted separately on the surface soil layer at particular locations within each pot. Water levels were brought to a puddled condition above the soil surface directly after planting. E. crus-galli and rice seeds were planted in cavity trays in the silt loam soil and transplanted at the 1.5 and 2.0 leaf stage, respectively. E. crus-galli and rice plants were transplanted to about 2-cm depth by transferring plugs from the cavity trays. Plantings were sequential so that these plant species all reached the 2.0- to 2.5-leaf stage in the 11-cm diameter pot at time of treatment. Plantings were established and maintained in a greenhouse with day and night temperatures of about 29.5 and 26.7° C. respectively; supplemental balanced lighting was provided to maintain a 16-hour photoperiod. Pots were fertilized periodically with a 200 ppm solution of commercial Scotts Peters® Professional® General Purpose 20-20-20 Water Soluble Fertilizer, amended to 10 ppm with a commercial iron-chelate micronutrient fertilizer. The solution was supplied at time of watering via a liquid fertilizer injector.
At treatment time, test pots were flooded to 3 cm above the soil surface and maintained at that water depth for the duration of the test. Chemical treatments were formulated in acetone and applied directly to the paddy water (i.e., postemergence to flood). Make-up volumes of acetone were added to ensure that all pots were treated with a consistent volume. Test pots were maintained in the greenhouse. A randomized complete block design was employed. Five replicates of each treatment, alone and in mixture, were used. Each species was visually evaluated for treatment effects by comparing those treated to untreated controls and rated for plant response after 21 days.

velvetleaf (ABUTH) [2] = experiment: Test 15 greenhouse, postemergence; conditions: 12 DAA
velvetleaf (ABUTH) [3] = experiment: Test 16 greenhouse, post- and preemergence; conditions: 15 DAA
[4] = system: ivyleaf morningglory (IPOHE); experiment: Test 28 greenhouse, postemergence; format: in vivo, Ipomoea hederacea; conditions: 26 DAA
Method: A greenhouse test was conducted to evaluate the effects on the plant species corn (ZEAMD, Zea mays ssp. indentata), sorghum (SORVU, Sorghum vulgare L.), dry-seeded rice (ORYSA, Oryza sativa L.), wheat (TRZAW, Triticum aestivum L.), ivyleaf morningglory (IPOHE, Ipomoea hederacea (L.) JACQ.), and barnyardgrass (ECHCG, Echinochloa crus-galli (L.) P. BEAUV.), of mixtures of Compound 2 with isoxadifen-ethyl. Corn, sorghum, rice, wheat, ivyleaf morningglory and barnyardgrass seeds were planted in RediEarth, a commercial potting medium. […] Corn plants were treated postemergence at the V2 growth stage, and sorghum, rice, wheat, ivyleaf morningglory, and barnyardgrass plants were treated postemergence at the 3-leaf stage. […] Each treatment was replicated three times. […] Plants were watered as needed.

spring wheat (TRZAS) = experiment: Test 4 field trial, postemergence
Method: A field trial was conducted to evaluate the effects of mixtures of Compound 2 with commercial herbicides on spring wheat (TRZAS, Triticum aestivum L.) and several weed species. Wheat seeds (cv. ‘AC Intrepid’) were planted in late spring season, 3.8 cm deep in a loam soil having 2.7% organic matter and a pH of 7. Plots were 6 m long by 2.5 m wide. The field was managed using no-till practices. The plots were arranged in a randomized complete block design with each treatment being replicated four times. Treatments were applied postemergence 25 days after planting using a backpack sprayer delivering a spray volume of 55 L/ha using a pressure of 276 kPa. […] Compound 2 and clodinafop treatments, alone and in combination, also included a surfactant. Weed species present in the experimental plots in sufficient quantity to be evaluated included wild oat (AVEFA, Avena fatua L.), common lambsquarters (CHEAL, Chenopodium album L.), kochia (KCHSC, Kochia scoparia (L.) Schrad.), wild buckwheat (POLCO, Polygonum convolvulus L.), Russian thistle (SASKR, Salsola kali L. ssp. ruthenica (Iljin) Soo), and field pennycress (THLAR, Thlaspi arvense L.). […] Common lambsquarters was evaluated only at 14 days after application. […] Results are the means of the four replicates.

common ragweed (AMBEL) = experiment: Test 26 field trial, postemergence; format: in vivo, Ambrosia artemisiifolia; set-up: scale not given here
From the text: Corn seeds (hybrid ‘Pioneer 31G96’) were planted in mid spring season, 3.8 cm deep in a silt loam soil having 2% organic matter and a pH of 6.6. Plots were 6.1 m long by 3.0 m wide with rows spaced 76 cm apart. Seeds were spaced 15 cm apart within the rows. The field was managed using conventional tillage practices. […] All treatments also included a surfactant. […] Some of the weed species could not be evaluated at every timing. […] Results are the means of the three replicates.

SMILES: Nc1nc(C2CC2)nc(C(=O)O)c1Cl [Compound 1, 6-amino-5-chloro-2-cyclopropyl-4-pyrimidinecarboxylic acid]
- CYPDI Obs ([1]; Cpd 1 31.25 g a.i./ha): 80
- CYPDI Obs ([1]; Cpd 1 62.5 g a.i./ha): 74
- CYPDI Obs ([1]; Cpd 1 125 g a.i./ha): 92

SMILES: COC(=O)c1nc(C2CC2)nc(N)c1Cl [Compound 2, methyl 6-amino-5-chloro-2-cyclopropyl-4-pyrimidinecarboxylate]
- Obs response, scale 0 to 100 (velvetleaf (ABUTH) [2]; 15 g a.i./ha): 31
- Obs response, scale 0 to 100 (velvetleaf (ABUTH) [2]; 30 g a.i./ha): 38
- Obs response, scale 0 to 100 (velvetleaf (ABUTH) [2]; 45 g a.i./ha): 61
- Obs response, scale 0 to 100 (velvetleaf (ABUTH) [3]; Postemergence, 15 g a.i./ha): 33
- Obs response, scale 0 to 100 (velvetleaf (ABUTH) [3]; Postemergence, 30 g a.i./ha): 38
- Obs response, scale 0 to 100 (velvetleaf (ABUTH) [3]; Postemergence, 45 g a.i./ha): 61
- Obs response, scale 0 to 100 (velvetleaf (ABUTH) [3]; Preemergence, 15 g a.i./ha): 23
- Obs response, scale 0 to 100 (velvetleaf (ABUTH) [3]; Preemergence, 30 g a.i./ha): 38
- Obs response, scale 0 to 100 (velvetleaf (ABUTH) [3]; Preemergence, 45 g a.i./ha): 42
- IPOHE Obs ([4]; Cpd 2 32 g a.i./ha): 100
- IPOHE Obs ([4]; Cpd 2 64 g a.i./ha): 100
- TRZAS Obs (spring wheat (TRZAS); 14 DAA, Cpd 2 30 g a.i./ha alone or with clodinafop 56 or fenoxaprop 90): 0
- TRZAS Obs (spring wheat (TRZAS); 14 DAA, Cpd 2 60 g a.i./ha alone or with clodinafop 56 or fenoxaprop 90): 0
- TRZAS Obs (spring wheat (TRZAS); 35 DAA, Cpd 2 30 g a.i./ha alone or with clodinafop 56 or fenoxaprop 90): 2
- TRZAS Obs (spring wheat (TRZAS); 35 DAA, Cpd 2 60 g a.i./ha alone or with clodinafop 56 or fenoxaprop 90): 6
- TRZAS Obs (spring wheat (TRZAS); 55 DAA, Cpd 2 30 g a.i./ha alone or with clodinafop 56 or fenoxaprop 90): 3
- TRZAS Obs (spring wheat (TRZAS); 55 DAA, Cpd 2 60 g a.i./ha alone or with clodinafop 56 or fenoxaprop 90): 11
- AMBEL Obs (common ragweed (AMBEL); 14 DAA, 30 g a.i./ha): 94
- AMBEL Obs (common ragweed (AMBEL); 14 DAA, 45 g a.i./ha): 67
- AMBEL Obs (common ragweed (AMBEL); 14 DAA, 60 g a.i./ha): 98
- AMBEL Obs (common ragweed (AMBEL); 28 DAA, 30 g a.i./ha): 88
- AMBEL Obs (common ragweed (AMBEL); 28 DAA, 45 g a.i./ha): 95
- AMBEL Obs (common ragweed (AMBEL); 28 DAA, 60 g a.i./ha): 98
- AMBEL Obs (common ragweed (AMBEL); 56 DAA, 30 g a.i./ha): 73
- AMBEL Obs (common ragweed (AMBEL); 56 DAA, 45 g a.i./ha): 95
- AMBEL Obs (common ragweed (AMBEL); 56 DAA, 60 g a.i./ha): 95
